Results published in patent US20120027687A1, “FATTY ACID PROTEIN KINASE C ACTIVATORS AND ANTICOAGULANT FOR THE TREATMENT OF STROKE” (priority 2010, published 2012).

Assays:
PKCε = target: T1, PKCε (Homo sapiens, UniProt Q02156); assay: PKC assay with purified PKCε; assay type: biochemical; details: for effect on purified PKCε (FIG. 7, FIG. 8): preincubated five minutes, radiometric
T1 construct: purchased Calbiochem
T1 sequence (Q02156 1-737): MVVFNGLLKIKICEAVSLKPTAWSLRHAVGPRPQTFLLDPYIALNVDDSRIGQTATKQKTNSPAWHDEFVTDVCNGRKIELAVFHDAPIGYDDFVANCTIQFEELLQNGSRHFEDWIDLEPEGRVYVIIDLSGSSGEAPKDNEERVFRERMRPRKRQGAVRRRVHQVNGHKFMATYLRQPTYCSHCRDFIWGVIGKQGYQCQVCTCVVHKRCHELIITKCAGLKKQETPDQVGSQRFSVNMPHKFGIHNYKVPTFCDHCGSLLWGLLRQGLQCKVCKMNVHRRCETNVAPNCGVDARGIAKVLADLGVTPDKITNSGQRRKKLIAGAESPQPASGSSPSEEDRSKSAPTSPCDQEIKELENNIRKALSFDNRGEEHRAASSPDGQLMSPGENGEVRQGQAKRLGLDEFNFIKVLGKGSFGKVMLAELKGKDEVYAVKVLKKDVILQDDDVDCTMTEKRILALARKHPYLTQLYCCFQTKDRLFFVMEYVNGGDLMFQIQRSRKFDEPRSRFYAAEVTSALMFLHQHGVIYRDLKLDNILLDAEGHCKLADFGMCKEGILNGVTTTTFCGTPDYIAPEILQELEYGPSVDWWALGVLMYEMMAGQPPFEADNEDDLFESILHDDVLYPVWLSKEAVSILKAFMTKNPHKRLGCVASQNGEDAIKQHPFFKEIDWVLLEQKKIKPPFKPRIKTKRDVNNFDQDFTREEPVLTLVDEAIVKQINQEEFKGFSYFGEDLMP
Method: PKC assay. […] 0.5 micro Ci[^γ32P]ATP was added. […] The reaction was stopped by spotting the reaction mixtures on 1×2 cm strips of cellulose phosphate paper (Whatman P81) and immediately washing twice for 1 hr in 0.5% H3PO4. The cellulose phosphate strips were counted in a scintillation counter. In some experiments, phosphatidylserine, diacylglycerol, and/or calcium were removed. […]
To determine their PKC isozyme specificity, fatty acid derivatives were preincubated with purified PKC for five minutes and the PKC activity was measured radiometrically.

PKC [1] = details: cited from earlier work; for Ki: A-ring bryologs, read-out: affinity for PKC
PKC [2] = assay: PKC activation over time in H19-7/IGF-IR hippocampal cells; assay type: cell-based, rat; details: 8 hours, data not shown
Method: Cell culture. Rat hippocampal H19-7/IGF-IR cells (ATCC, Manassas, Va.) were plated onto poly-L-lysine coated plates and grown at 35° C. in DMEM/10% FCS for several days until about 50% coverage was obtained. The cells were then induced to differentiate into a neuronal phenotype by replacing the medium with 5 ml N2 medium containing 10 ng/ml basic fibroblast growth factor at 39° C. and grown in T-75 flasks at 37° C. Human SH-SY5Y neuroblastoma cells (ATCC) were cultured in 45% F12K/45% MEM/10% FCS. Mouse N2A neuroblastoma cells were cultured in DMEM/10% FCS without glutamine. Rat hippocampal neurons from 18-day-old embryonic Sprague Dawley rat brains were plated on 12- or 96-well plates coated with poly-D-lysine (Sigma-Aldrich, St. Louis, Mo.) in B-27 neurobasal medium containing 0.5 mM glutamine and 25 μM glutamate (Invitrogen, Carlsbad, Calif.) and cultured for three days in the medium without glutamate. The neuronal cells were grown under 5% CO2 in an incubator maintained at 37° C. for 14 days.
Protein kinase C assay. Rat hippocampal cells were cultured and scraped in 0.2 ml homogenization buffer (20 mM Tris-HCl, pH 7.4, 50 mM NaF, 1 μg/ml leupeptin, and 0.1 mM PMSF) and homogenized by sonication a Marsonix microprobe sonicator (5 sec, 10W). To measure PKC, 10 μl of cell homogenate or purified PKC isozyme (purchased from Calbiochem) was incubated for 15 min at 37° C. in the presence of 10 μM histones, 4.89 mM CaCl2, 1.2 μg/μl phosphatidyl-L-serine, 0.18 μg/μl 1,2-dioctanoyl-sn-glycerol, 10 mM MgCl2, 20 mM HEPES (pH 7.4), 0.8 mM EDTA, 4 mM EGTA, 4% glycerol, 8 μg/ml aprotinin, 8 μg/ml leupeptin, and 2 mM benzamidine. 0.5 Ci [^γ32P]ATP was added and ^32P-phosphoprotein formation was measured by adsorption onto phosphocellulose as described previously. Nelson and Alkon, J. Neurochemistry (1995), vol. 65, pp. 2350-2357. For measurements of activation by BR-101 (DCP-LA) and similar compounds. PKC activity was measured in the absence of diacylglycerol and phosphatidylserine and PKC δ, ε, η, and μ were measured in the absence of added EGTA and CaCl2, as described by Kanno et al. (J. Lipid Res. 2006, vol. 47, pp. 1146-1150). Low concentrations of Ca^2+ are used because high Ca^2+ interacts with the PKC phosphatidylserine binding site and prevents activation. For measurements of bryostatin activation, 1,2-diacylglycerol was omitted unless otherwise stated.

Compound: CCCCC[C@H]1O[C@H]1CC1CC1CCCCCCCC(=O)OC (some centres unmarked) [BR-109, vernolic acid methyl ester cyclopropane]
- concentrations at which PKCε is inhibited (PKCε): above 1 μM

Compound: CCCCCCCC(=O)OC1C(=CC(=O)OC)CC2CC(CO)OC(=O)CC(O)CCOC(CCCc3ccc(Br)cc3)CC3CCOC(C=CC(C)(C)C1(O)O2)O3 (centres unmarked) [bryolog 5]
- Ki (PKC [1]): 1.9 nM

Compound: CCCCCCCC(=O)OC1C(=CC(=O)OC)CC2CC(CO)OC(=O)CC(O)CCOC(c3ccccc3)CC3CCOC(C=CC(C)(C)C1(O)O2)O3 (centres unmarked) [bryolog 4]
- Ki (PKC [1]): 2.3 nM

Compound: CCCCCC1CC1CC1CC1CCCCCCCCO (centres unmarked) [BR-105, linoleic alcohol dicyclopropane]
- effect on purified PKCε (FIG. 7, FIG. 8) (PKCε): little or no effect

Compound: CCCCCCCCCCCCCC(=O)O[C@@H]1[C@@H](C)[C@@]2(O)[C@@H](C=C(CO)C[C@]3(O)C(=O)C(C)=C[C@@H]23)[C@@H]2C(C)(C)[C@]12OC(C)=O [PMA, phorbol 12-myristate 13-acetate]
- PKC activity at 8 hours (downregulation) (PKC [2]): strongly downregulated

Compound: CCCCCCCC(=O)OC1C(=CC(=O)OC)CC2CC(CO)OC(=O)CC(O)CCOC(C(C)(C)C)CC3CCOC(C=CC(C)(C)C1(O)O2)O3 (centres unmarked) [bryolog 3]
- Ki (PKC [1]): 6.5 nM

Compound: CCC1CC1CC1CC1CC1CC1CC1CC1CC1CC1CCCC(=O)OC (centres unmarked) [BR-114]
- concentration needed to activate PKC, times lower than for BR-101 (DCP-LA) (PKCε): approximately 100 times
- effect on purified PKCε (FIG. 7, FIG. 8) (PKCε): activated

Compound: CCC1CC1CC1CC1CC1CC1CCCCCCCCO (centres unmarked) [BR-104, linolenic alcohol tricyclopropane]
- effect on purified PKCε (FIG. 7, FIG. 8) (PKCε): little or no effect

Compound: CCCCCC1OC1C/C=C\CCCCCCCC(=O)OC (stereo in doubt) [BR-117, vernolic acid methyl ester]
- effect on purified PKCε (FIG. 7, FIG. 8) (PKCε): little or no effect

Compound: epoxystearic acid [BR-116]
- effect on purified PKCε (FIG. 7, FIG. 8) (PKCε): little or no effect

Compound: CCCCCC1CC1CC1CC1CC1CC1CC1CC1CCCC(=O)OC (centres unmarked) [BR-115, methyl 4-(2-((2-((2-((-pentylcyclopropyl)methyl)cyclopropyl)methyl)cyclopropyl)methyl)cyclopropyl)butanoate methyl ester]
- concentration needed to activate PKC, times lower than for BR-101 (DCP-LA) (PKCε): approximately 100 times
- effect on purified PKCε (FIG. 7, FIG. 8) (PKCε): activated
